Where “and” joins values, the source holds several entries; their conditions need not be identical. Equal values may be shown once. Blank lines part the entries; values can stand above or below the compound they belong to.
Experiments:
Type in all cases: in vivo
[1] = Passing of the blood-brain barrier in horses; conditions: after oral Toltrazuril daily for 10 days
Protocol: (§1) This experiment was conducted in order to determine whether triazineones such as Toltrazuril can pass the blood-brain barrier. Normal horses were divided into three groups of three horses per group. Group 1 horses received Toltrazuril administered orally as a 5% suspension at a dose level of 2.5 mg/Kg. Group 2 horses received Toltrazuril administered orally as a 5% suspension at a dose level of 5.0 mg/Kg. Group 3 horses received Toltrazuril administered orally as a 5% suspension at a dose level of 7.5 mg/Kg. The dosing was repeated daily for 10 days. Blood samples were drawn at 48, 96 and 240 hours and the concentration of Toltrazuril, Toltrazuril sulfoxide and Ponazuril in the serum was measured. Ten days after the start of the treatment (Day 10), a sample of cerebral spinal fluid was removed from each horse and the concentrations of Toltrazuril, Toltrazuril Sulfoxide and Ponazuril were again measured in these samples. The concentrations of Toltrazuril, Toltrazuril Sulfoxide and Ponazuril in the serum and cerebral spinal fluid are reported in TABLES 5a and 5b.

[2] = Pharmacokinetics of a single oral dose of Toltrazuril in horses (blood levels); conditions: single oral dose of Toltrazuril 10 mg/kg; for concentration at 24 h / Concentration in mg/l of Blood, 24 hours: 24 h post treatment; for concentration at 24 h: read-out: Concentration in mg/l of Blood, 24 hours; for concentration at 48 h / Concentration in mg/l of Blood, 48 hours: 48 h post treatment; for concentration at 48 h: read-out: Concentration in mg/l of Blood, 48 hours; for concentration at 72 h / Concentration in mg/l of Blood, 72 hours: 72 h post treatment; for concentration at 72 h: read-out: Concentration in mg/l of Blood, 72 hours; for Concentration in mg/l of Blood, 24 hours: 1440 min; for Concentration in mg/l of Blood, 48 hours: 2880 min; for Concentration in mg/l of Blood, 72 hours: 4320 min
Protocol: A pharmacokinetic study was conducted in horses comparing blood levels of Toltrazuril, Ponazuril and Toltrazuril Sulfoxide at various times post a single dose of Toltrazuril. All horses received a single dose of 10 mg/kg, which was administered orally as a suspension. Blood samples were drawn at the time of treatment (0) and at 0.25, 0.5, 1, 2, 4, 6, 12, 24, 48 and 72 hours post treatment. […] This was an indication that Ponazuril, alone, would produce acceptable blood levels that are envisioned to pass the blood-brain barrier, a characteristic required to treat neurological diseases such as those caused by Sarcocystis neurona, Toxoplasma gondii, Neospora caninum and Neospora

[3] = Drug levels in serum after repeated doses of Toltrazuril in horses; parameters: unit not given here; conditions: for AVG drug level in serum, 48 Hrs / AVG drug level in serum, 96 Hrs / AVG drug level in serum, 240 Hrs: group average; for Drug level in serum, 48 Hrs / Drug level in serum, 96 Hrs / Drug level in serum, 240 Hrs: individual horse
Protocol: as §1

[4] = Drug levels in cerebral spinal fluid after repeated doses of Toltrazuril in horses; parameters: Drug level in Cerebral Spinal Fluid, Day 10 / AVG drug level in Cerebral Spinal Fluid, Day 10: unit not given here; conditions: Day 10; for AVG drug level in Cerebral Spinal Fluid, Day 10: group average; for Drug level in Cerebral Spinal Fluid, Day 10: individual horse
Protocol: as §1

[5] = horse, blood, po, 10 mg/kg, suspension, one value per horse (A-F)
[6] = suspension, one value per horse (A-F), 10 mg/kg
[7] = Toltrazuril 2.5 mg/Kg oral daily for 10 days
[8] = Toltrazuril 5.0 mg/Kg oral daily for 10 days
[9] = Toltrazuril 7.5 mg/Kg oral daily for 10 days

concentration at 24 h [2, 5]: 6.43 mg/L | concentration at 48 h [2, 5]: 7.61 mg/L | concentration at 72 h [2, 5]: 6.65 mg/L | Concentration in mg/l of Blood, 0.25 hours ([2]; suspension, 0.25 h post treatment, one value per horse (A-F), 10 mg/kg, 15 min): 0.061 mg/L | Concentration in mg/l of Blood, 1 hour ([2]; suspension, 1 h post treatment, one value per horse (A-F), 10 mg/kg, 60 min): 3.286 mg/L | Concentration in mg/l of Blood, 72 hours [2, 6]: 5.058 mg/L and 7.633 mg/L | AVG drug level in serum, 48 Hrs [3, 7]: 6.70 | AVG drug level in serum, 96 Hrs [3, 7]: 10.68 | AVG drug level in serum, 240 Hrs [3, 7]: 13.37 | Drug level in serum, 48 Hrs [3, 7]: 4.49 and 4.0 and 11.6 | Drug level in serum, 96 Hrs [3, 7]: 9.85 and 9.09 and 13.1 | Drug level in serum, 240 Hrs [3, 7]: 15.29 and 9.60 and 15.21 | AVG drug level in serum, 48 Hrs [3, 8]: 8.57 | AVG drug level in serum, 96 Hrs [3, 8]: 15.46 | AVG drug level in serum, 240 Hrs [3, 8]: 19.68 | Drug level in serum, 48 Hrs [3, 8]: 7.28 and 9.18 and 9.26 | Drug level in serum, 96 Hrs [3, 8]: 14.17 and 14.03 and 18.19 | Drug level in serum, 240 Hrs [3, 8]: 24.92 and 16.54 and 17.59 | AVG drug level in serum, 48 Hrs [3, 9]: 10.18 | AVG drug level in serum, 96 Hrs [3, 9]: 21.92 | AVG drug level in serum, 240 Hrs [3, 9]: 25.95 | Drug level in serum, 48 Hrs [3, 9]: 9.90 and 10.46 | Drug level in serum, 96 Hrs [3, 9]: 27.74 and 19.55 and 18.47 | Drug level in serum, 240 Hrs [3, 9]: 30.08 and 24.15 and 23.53 | AVG drug level in Cerebral Spinal Fluid, Day 10 [4, 7]: 0.15 | Drug level in Cerebral Spinal Fluid, Day 10 [4, 7]: 0.23 and 0.06 and 0.15 | AVG drug level in Cerebral Spinal Fluid, Day 10 [4, 8]: 0.19 | Drug level in Cerebral Spinal Fluid, Day 10 [4, 8]: 0.19 and 0.12 and 0.26 | AVG drug level in Cerebral Spinal Fluid, Day 10 [4, 9]: 0.39 | Drug level in Cerebral Spinal Fluid, Day 10 [4, 9]: 0.50 and 0.21 and 0.45
SMILES: Cc1cc(-n2c(=O)[nH]c(=O)n(C)c2=O)ccc1Oc1ccc(SC(F)(F)F)cc1 [Toltrazuril, reference compound]
crossing of the blood-brain barrier [1]: effectively cross the blood-brain barrier | Concentration in mg/l of Blood, 24 hours [2, 6]: 11.690 mg/L and 7.236 mg/L and 8.694 mg/L and 10.224 mg/L | Concentration in mg/l of Blood, 48 hours [2, 6]: 6.677 mg/L and 9.758 mg/L and 8.234 mg/L and 6.869 mg/L and 7.096 mg/L

concentration at 0.25 h ([2]; horse, blood, po, 10 mg/kg, suspension, 0.25 h post treatment, one value per horse (A-F), read-out: Concentration in mg/l of Blood, 0.25 hours): < 0.01 mg/L | concentration at 24 h [2, 5]: 0.407 mg/L | concentration at 48 h [2, 5]: 0.732 mg/L | concentration at 72 h [2, 5]: 0.592 mg/L | levels in serum/bloodstream of horses receiving Toltrazuril (in words) [2]: significant levels | Concentration in mg/l of Blood, 72 hours [2, 6]: 0.346 mg/L and 0.377 mg/L
SMILES: Cc1cc(-n2c(=O)[nH]c(=O)n(C)c2=O)ccc1Oc1ccc([S+]([O-])C(F)(F)F)cc1 (centres unmarked) [Toltrazuril Sulfoxide]
Concentration in mg/l of Blood, 24 hours [2, 6]: 0.566 mg/L and 0.461 mg/L and 0.481 mg/L and 0.633 mg/L | Concentration in mg/l of Blood, 48 hours [2, 6]: 0.454 mg/L and 0.477 mg/L and 0.749 mg/L and 0.741 mg/L and 0.642 mg/L

Reference: US6150361A, “Triazineone compounds for treating diseases due to sarcosystis, neospora and toxoplasma” (Bayer Corporation, priority 1998, dated 2000)
